Patent EP0273199A2, “Uses of 3,4-diphenyl piperidine derivatives or medicines, 3,4-diphenyl piperidine derivatives, and process for their preparation” (LABORATOIRES HOECHST S.A., priority 1986, dated 1988)
Several values for one entry are separate records, joined by “and”; a condition that tells them apart may be missing. Equal values may be shown once. Where a name gives a salt, the structure may show the parent alone. Read-outs that look alike come from different tables or passages of the source.

Experiments:
[1] = tested on: Toxizität des Yohimbins; assay: Potentiation of yohimbine toxicity; type: in vivo, Maus; details: for minimal effective dose: Mus musculus, ip; for Erste wirksame Dosis Yohimbin: mouse, i.p.
Experimental: Wirkung auf die Toxizität des Yohimbins
Zur Zeit 0 erhalten die Mäuse entweder destilliertes Wasser oder verschiedene zu untersuchende Verbindungen i.p. 30 Minuten danach verabreicht man ihnen subkutan eine infratoxische Dosis von 25 mg/kg Yohimbinchlorhydrat.
Die Mortalität wird jede Stunde über einen Zeitraum von 4 Stunden verfolgt und dann nach 24 Stunden notiert.
Die eine antidepressive Aktivität besitzenden Produkte verursachen eine Potenzierung der Toxizität des Yohimbins.

[2] = tested on: Apomorphin 16 mg/kg; assay: Antiapomorphine activity (apomorphine 16 mg/kg s.c., hypothermia); type: in vivo, Maus
Experimental: Zur Zeit 0 nach Ausgleich der Reaktaltemperaturen werden die Mäuse (6 pro Gruppe) in deren Beobachtung gestattende Einzelkäfige (11 x 3,5 x 4 cm) eingeetzt. 30 Minuten nach i.p. bzw. p.o. Verabreichung der Testsubstanz erhalten sie Apomorphin subkutan in einer Dosis von 16 mg/kg. Die Rektaltemperatur wird 30 Minuten nach dem Apomorphin gemessen. Die Kontrolltiere erhalten destilliertes Wasser statt der zu untersuchenden Verbindungen. Die bei diesen Kontrolltieren, die 16 mg/kg Apomorphin erhalten haben, beobachtete Hypothermie liegt im Durchschnitt bei 33°C. Für jede Verbindungsdosis berechnet man die prozentuale Hemmung der Hypothermie.

[3] = tested on: Motoraktivität; assay: Actimetry (motor activity, photocell actimeter); type: in vivo, Maus; details: mouse; direction of change of motor activity
Excerpt: Die Motoraktivität wird mittels Photozellenaktimetern bestimmt (Boissier und Simon, Arch. Int. Pharmacodyn. 1965, 158, 212-221).
Die Mäuse (10 oder ein Vielfaches von 10 pro Gruppe) werden unmittelbar nach i.p. Verabreichung der zu untersuchenden Verbindungen in das Aktimeter eingesetzt. Die Motoraktivität wird danach bis zur 60. Minute gemessen. De Zähler werden nach 30 Minuten abgelesen und dann auf 0 zurückgestellt und im Verlauf von 30 Minuten alle 10 Minuten abgelesen.
Die Beweglichkeit der mit den verschiedenen Verbindungen behandelten Tiere wird mit derjenigen einer destilliertes Wasser erhaltenden Kontrollgruppe verglichen.
Die eine psychostimulierende Aktivität besitzenden Produkte verursachen eine Zunahme der Beweglichkeit.

[4] = tested on: durch Reserpin induzierten Hypothermie; assay: Antireserpine activity (reserpine-induced hypothermia); type: in vivo, Maus
Experimental: Zur Zeit 0 erhalten die Mäuse intraperitoneal Reserpin (2,5 mg/kg).
4 Stunden danach, wenn die Hypothermie genügend stark erscheint (30 bis 33°C), verabreicht man die verschiedenen zu untersuchenden Verbindungen i.p. oder p.o. Alle 30 Minuten über einen Zeitraum von 2 Stunden mißt man die Rektaltemperatur mit einer auf konstante Tiefe eingeführten, ein Thermoelement tragenden Sonde. Die Rektaltemperatur der mit verschiedenen erfindungsgemäßen Verbindungen behandelten Tiere wird mit der Temperatur einer Kontrollgruppe verglichen, die destilliertes Wasser auf die gleiche Weise wie die untersuchten Verbindungen erhält.
Die Akinesie (fehlende Bewegungen) und Ptose (Öffnungsgrad des Augenlids von 0 bis 4 nach Rubin u.a 1957) werden ebenfalls alle 30 Minuten über einen Zeitraum von 2 Stunden bewertet.
Die eine antidepressive Aktivität besitzenden Produkte wirken der durch Reserpin induzierten Hypothermie entgegen. Für jede Dosis der verabreichten Verbindung berechnet man die prozentuale Hemmung der Hypothermie.

[5] = tested on: Maus; assay: Tail suspension test; type: in vivo; details: ip; mouse, i.p.; footnote of Tabelle 1; read-out: tail suspension test= positiv ab
Excerpt: Schwanzaufhängungstest an der Maus wie von Stéru u.a. beschrieben (Psychopharmacology 85, 367-370, 1985).
Die Substanzen werden intraperitoneal 30 Minuten vor dem Test verabreicht und die Tiese isoliert (10 Mäuse pro Dosis).
Man bewertet die Dauer der Unbeweglichkeit, ausgedrückt in Sekunden über die 6 Minuten des Tests. Man untersucht auf eine Verkürzung dieser Unbeweglichkeitszeit.

[6] = tested on: L-5-Hydroxytryptophan; assay: Potentiation of L-5-hydroxytryptophan effects (head twitches, tremor); type: in vivo, Maus; details: mouse, 1 mg/kg i.p., 30 min before L-5 HTP 4 mg/kg i.p.
Experimental: L-5 HTP induziert an der Maus ruckartige Bewegungen des Kopfes (Kopfzuckungen). Die zu untersuchenden Substanzen werden den Tieren (10 Mäuse pro Dosis) intraperitoneal 30 Minuten vor dem L-5 HTP (4 mg/kg intraperitoneal) verabreicht. Die ruckartigen Kopfbewegungen und der Tremor werden 1 Minutre lang alle 10 Minuten im Verlauf einer Stunde bewertet. Desimipramin und Indalpin sind die Kontrol-(Vergleichs-)verbindungen. Ein antidepressiver Effekt zeigt sich durch eine Zunahme der ruckartigen Kopfbewegungen und des Tremors.

[7] = tested on: Maus; assay: Hot plate test (licking and jumping), analgesia; type: in vivo
Experimental: Heizplattentest: Lecken und Springen, wie von Jacob und Blozovski beschrieben (Arch. Int. Pharmacodyn. 133, 296-209, 1961).
Die in Sekunden ausgedrückten Reaktionszeiten auf einer Heizplatte werden unter Berücksichtigung des Leckens der Vorderpfoten und Springen des Tieres als Kriterien bewertet. Die beiden Reaktionen werden am selben, anfänglich untrainierten Tier mit einer maximalen Ansprechzeit (Obergrenze) von 240 Sekunden beobachtet. Die Temperatur der Platte wird auf 56,6°C gehalten.
Morphin als positive Kontrolle wird subkutan und die übrigen Substanzen (mg/kg) werden intraperitoneal 30 Minuten vor dem Test verabreicht. Positives Ansprechen zeigt sich in einer Zunahme der Reaktionszeit.
Wird der schadensverhütenden Wirkung eine Substanz durch Naloxon entegengewirkt, so kann man schließen, daß die Substanz tatsächlich eine analgetische Wirkung besitzt.

[8] = read-out: Erste wirksame Dosis Yohimbin, mouse, i.p., only or lowest value of the cell
[9] = Mus musculus, ip, read-out: Erste wirksame Dosis Apomorphin 16 mg/kg, mouse, i.p., only or lowest value of the cell
[10] = Mus musculus, ip, read-out: Erste wirksame Dosis Reserpin, mouse, i.p., only or lowest value of the cell
[11] = ip, mouse, i.p., only or lowest value of the cell, read-out: Erste wirksame Dosis Apomorphin 16 mg/kg
[12] = ip, mouse, i.p., only or lowest value of the cell, read-out: Erste wirksame Dosis Reserpin
[13] = Mus musculus, read-out: Erste wirksame Dosis Apomorphin 16 mg/kg, mouse, further value in the same cell, route not stated (lowest = i.p.; p.o. also tested)
[14] = mouse, i.p., only or lowest value of the cell
[15] = only or lowest value of the cell
[16] = mouse, reaction time, 8 mg/kg i.p., plate 56,6°C
[17] = mouse, Tabelle 5a, Naloxon alone 0,5 mg/kg

Work on `Oc1ccc([C@@H]2CCNC[C@H]2c2ccccc2)cc1` (racemic) [7 (1.Stufe), trans-4-(4-Hydroxyphenyl)-3-phenylpiperidin-bromhydrat] yielded a minimal effective dose [1, 8] of 4 mg/kg, a minimal effective dose ([1]; read-out: Erste wirksame Dosis Yohimbin, mouse, further value in the same cell, route not stated (lowest = i.p.)) of 16 mg/kg and a minimal effective dose [2, 9] of 0.5 mg/kg. For the same molecule, the Aktimetrie [3] was “↘” and the minimal effective dose [4, 10] was 32 mg/kg.
`COc1ccc([C@@H]2CCNC[C@H]2c2ccccc2)cc1` (racemic) [Beispiel 2, trans-4-(4-Methoxyphenyl)-3-phenylpiperidinchlorhydrat] gave a minimal effective dose [2, 11] of 1 mg/kg, a minimal effective dose ([2]; mouse, further value in the same cell, route not stated (lowest = i.p.; p.o. also tested), read-out: Erste wirksame Dosis Apomorphin 16 mg/kg) of 2 mg/kg and a minimal effective dose [5] of at least 8 mg/kg. For the same molecule, the Aktimetrie [3] was “↘” and the minimal effective dose [4, 12] was 4 mg/kg.
`CC(=O)Oc1ccc([C@@H]2CCNC[C@H]2c2ccccc2)cc1` (racemic) [Beispiel 11, trans-4-(4-Acetoxyphenyl)-3-phenylpiperidinchlorhydrat] showed a minimal effective dose [1, 8] of 16 mg/kg, a minimal effective dose [2, 11] of 1 mg/kg and a minimal effective dose [4, 12] of 4 mg/kg.
Molecule `Cc1ccc([C@@H]2CCNC[C@H]2c2ccccc2)cc1` (relative stereo) [10 (Base), trans-4-(4-Methylphenyl)-3-phenylpiperidin] has a minimal effective dose [1, 8] of 16 mg/kg, a minimal effective dose [2, 9] of 16 mg/kg and a minimal effective dose [2, 13] of 32 mg/kg. For the same molecule, the Aktimetrie [3] was “↘” and the “Erste wirksame Dosis Reserpin” value [4, 14] was 16 mg/kg.
For `Cc1ccc([C@@H]2CCNC[C@H]2c2ccccc2)cc1` (relative stereo) [10 (HCl-Salz), trans-4-(4-Methylphenyl)-3-phenylpiperidin], the “Erste wirksame Dosis Apomorphin 16 mg/kg” value [2, 14] was 16 mg/kg, the Aktimetrie [3] was “↘” and the minimal effective dose ([4]; Mus musculus, read-out: Erste wirksame Dosis Reserpin, mouse, further value in the same cell, route not stated (lowest = i.p.; p.o. also tested)) was 16 mg/kg. For the same molecule, the “Erste wirksame Dosis Reserpin” value [4, 14] was 4 mg/kg.
With `c1ccc([C@@H]2CCNC[C@H]2c2ccccc2)cc1` (relative stereo) [21 (HCl-Salz), trans-3,4-Diphenylpiperidin] the “Erste wirksame Dosis Yohimbin” value [1, 15] was 16 mg/kg, the “Erste wirksame Dosis Apomorphin 16 mg/kg” value [2, 14] was 4 mg/kg and the Aktimetrie [3] was “↗”. For the same molecule, the “Erste wirksame Dosis Reserpin” value [4, 14] was 4 mg/kg.
With `Clc1ccc(C2CNCCC2c2ccccc2)cc1` (stereo not drawn) [8 (Base), trans-3-(4-Chlorphenyl)-4-phenylpiperidin] the minimal effective dose [2, 9] was 16 mg/kg, the Aktimetrie [3] was “↘” and the minimal effective dose [4, 10] was 8 mg/kg.
With `Clc1ccc(C2CNCCC2c2ccccc2)cc1` (stereo not drawn) [8 (HCl-Salz), trans-3-(4-Chlorphenyl)-4-phenylpiperidin] the minimal effective dose [1, 8] was 16 mg/kg, the “Erste wirksame Dosis Apomorphin 16 mg/kg” value [2, 14] was 8 mg/kg and the Aktimetrie [3] was “↘”. For the same molecule, the “Erste wirksame Dosis Reserpin” value [4, 14] was 4 mg/kg.
For `Clc1ccc([C@@H]2CCNC[C@H]2c2ccccc2)cc1Cl` [15 (Base)], the “Erste wirksame Dosis Yohimbin” value [1, 15] was 4 mg/kg, the “Erste wirksame Dosis Apomorphin 16 mg/kg” value [2, 14] was 0,5 mg/kg and the Aktimetrie [3] was “↗”. The “Erste wirksame Dosis Reserpin” value [4, 14] was 0,5 mg/kg.
For `Clc1ccc(C2CNCCC2c2ccccc2)cc1Cl` (stereo not drawn) [Beispiel 13, trans-3-(3,4-Dichlorphenyl)-4-phenyl-piperidin-maleinat], the minimal effective dose [1, 8] was 16 mg/kg, the minimal effective dose [2, 9] was 4 mg/kg and the Aktimetrie [3] was “↘”. For the same molecule, the minimal effective dose [4, 10] was 8 mg/kg.
Molecule `Clc1ccc([C@@H]2CCNC[C@H]2c2ccccc2)cc1` [Beispiel 18] has a minimal effective dose [1, 8] of 1 mg/kg, a minimal effective dose [2, 9] of 0.5 mg/kg and a minimal effective dose [2, 13] of 2 mg/kg. For the same molecule, the Aktimetrie [3] was “↗” and the minimal effective dose [4, 10] was 0.5 mg/kg.
For `c1ccc2c(CCC3CCNCC3)c[nH]c2c1` [Indalpin, reference compound], the Tremor [6] was 2,0 ± 0,7, the “ruckartige Kopfbewegungen” value [6] was 4,1 ± 0,7 p < 0,01 and the Pfotenlecken [7, 16] was 8,4 ± 1,2 p < 0,02 Sekunden. The Sprünge [7, 16] was 132 ± 12 p ± 0,01 Sekunden.
For `CN1CC[C@]23c4c5ccc(O)c4O[C@H]2[C@@H](O)C=C[C@H]3[C@H]1C5` [Morphin, reference compound], the Pfotenlecken ([7]; in vivo, sc, 2 mg/kg) was 8,1 ± 0,6 p < 0,01 Sekunden and the Sprünge ([7]; in vivo, sc, 2 mg/kg) was 158 ± 17 p < 0,01 Sekunden.
For `C=CCN1CC[C@]23c4c5ccc(O)c4O[C@H]2C(=O)CC[C@@]3(O)[C@H]1C5` [Naloxon, reference compound], the Pfotenlecken [7, 17] was 5,5 ± 0,3 Sekunden and 5,2 ± 0,3 Sekunden and the Sprünge [7, 17] was 63 ± 6 Sekunden and 67 ± 5 Sekunden.
